Measurements from US7435837B2, “Dihydrobenzofuranyl alkanamine derivatives and methods for using same” (Wyeth, priority 2003, dated 2008).

How the values were obtained:
[1] = biological target: T1, human 5-HT2C receptor (Homo sapiens, UniProt P28335); test: 5-HT2C receptor-stimulated calcium mobilization (FLIPR) in CHO cells; assay type: cell-based; conditions: for Emax: CHO, read-out: 5-HT2C Function Emax (%); for Emax / 5-HT2C Function Emax (%): percentage of the response observed with a maximally effective concentration of 5-HT; for EC50: calcium mobilization, CHO cells stably expressing human 5-HT2C, read-out: 5-HT2C Function EC50;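 for all read-outs here: Fluo-3-AM fluorescence read on FLIPR every 1 s, agonist added after 10 baseline reads, response taken as peak minus lowest raw fluorescence count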
T1 sequence (P28335 33-458): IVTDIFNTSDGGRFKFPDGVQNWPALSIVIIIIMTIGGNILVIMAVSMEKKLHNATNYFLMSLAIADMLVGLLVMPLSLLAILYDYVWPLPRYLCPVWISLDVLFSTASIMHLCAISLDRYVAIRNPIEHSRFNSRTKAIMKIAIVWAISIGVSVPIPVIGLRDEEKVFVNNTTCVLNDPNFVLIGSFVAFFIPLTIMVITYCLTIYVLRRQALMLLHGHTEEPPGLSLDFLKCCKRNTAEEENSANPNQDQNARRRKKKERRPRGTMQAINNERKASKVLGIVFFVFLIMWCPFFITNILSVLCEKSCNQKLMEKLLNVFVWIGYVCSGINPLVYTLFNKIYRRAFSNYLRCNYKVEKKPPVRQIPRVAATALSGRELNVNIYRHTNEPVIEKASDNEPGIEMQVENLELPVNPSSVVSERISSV

[2] = biological target: T2, human 5-hydroxytryptamine-2C (h5-HT2C) receptor (Homo sapiens, UniProt P28335); test: [125I]DOI binding to membranes of CHO cells expressing the human 5-HT2C receptor; conditions: [125I]DOI radioligand, CHO cell membranes, room temperature 60 min; read-out: 5-HT2C Affinity Ki
T2 construct: expressed in transfected cells; host or cells: CHO (Chinese Hamster Ovary) cells; membranes
T2 sequence (P28335 33-458): T1 sequence (P28335 33-458)

Row | Structure (SMILES) | Emax [1] | EC50 [1] | Ki [2] | 5-HT2C Function Emax (%) [1]
1 | COc1cc2c(c(-c3cccc(Cl)c3Cl)c1)OC(CN)C2 (racemic) [Example 362, (±)-{[7-(2,3-dichlorophenyl)-5-methoxy-2,3-dihydro-1-benzofuran-2-yl]methyl}amine] | 70% | 343 nM | 36 nM | –
2 | CNCC1Cc2cccc(-c3ccccc3C)c2O1 (racemic) [Example 406, (±)-[(N-methyl-1-[7-(2-methylphenyl)-2,3-dihydro-1-benzofuran-2-yl]methanamine] | 100% | 9 nM | 0.51 nM | –
3 | Cc1ccccc1-c1cc(C#N)cc2c1OC(CN)C2 (racemic) [Example 311, (±)-2-(aminomethyl)-7-(2-methylphenyl)-2,3-dihydro-1-benzofuran-5-carbonitrile] | 90% | 63 nM | 25 nM | –
4 | CNCC1Cc2cccc(-c3ccccc3C)c2O1 (single isomer, unassigned; (+)) [Example 408, (+)-N-methyl-1-[7-(2-methylphenyl)-2,3-dihydro-1-benzofuran-2-yl]methanamine] | – | 6 nM | 0.46 nM | 90%
5 | NCC1Cc2cccc(-c3ccc(Cl)cc3Cl)c2O1 (single isomer, unassigned; (-)) [Example 149, (−)-1-[7-(2,4-dichlorophenyl)-2,3-dihydro-1-benzofuran-2-yl]methanamine] | 100% | 0.97 nM | 0.15 nM | –
6 | CNCC1Cc2cc(F)cc(-c3cc(Cl)ccc3Cl)c2O1 (racemic) [Example 449, (±)-{[7-(2,5-dichlorophenyl)-5-fluoro-2,3-dihydro-1-benzofuran-2-yl]methyl}methylamine] | 90% | 2 nM | 1 nM | –
7 | Cc1cc2c(c(-c3ccc(F)cc3)c1)OC(CN)C2 (racemic) [Example 291, (±)-{[7-(4-fluorophenyl)-5-methyl-2,3-dihydro-1-benzofuran-2-yl]methyl}amine] | 100% | 22 nM | 0.4 nM | –
8 | Cc1ccc(-c2cccc3c2OC(CN)C3)cc1 (single isomer, unassigned; (-)) [Example 72, (−)-1-[7-(4-methylphenyl)-2,3-dihydro-1-benzofuran-2-yl]methanamine] | – | 511 nM | 33 nM | 85%
9 | Cc1ccccc1-c1cc(C2CCCC2)cc2c1OC(CN)C2 (racemic) [Example 309, (±)-{[5-cyclopentyl-7-(2-methylphenyl)-2,3-dihydro-1-benzofuran-2-yl]methyl}amine] | 90% | 107 nM | 8 nM | –
10 | CC(C)(C)c1cccc2c1OC(CN)C2 (single isomer, unassigned; (+)) [Example 26, (+)-1-(7-tert-butyl-2,3-dihydro-1-benzofuran-2-yl)methanamine] | – | 79 nM | 71 nM | 100%
11 | CC(C)c1ccccc1-c1cccc2c1OC(CN)C2 (single isomer, unassigned; (+)) [Example 62, (+)-[7-(2-isopropylphenyl)-2,3-dihydro-1-benzofuran-2-yl]methylamine] | 70% | 130 nM | 40 nM | –
12 | NCC1Cc2cc(F)cc(-c3ccccc3Cl)c2O1 (racemic) [Example 100, (±)-1-[7-(2-chlorophenyl)-5-fluoro-2,3-dihydro-1-benzofuran-2-yl]methanamine] | 100% | 120 nM | 0.2 nM | –
13 | CNCC1Cc2cccc(-c3cccc(F)c3)c2O1 (racemic) [Example 415, (±)-[(N-methyl-1-[7-(3-fluorophenyl)-2,3-dihydro-1-benzofuran-2-yl]methanamine] | 70% | 109 nM | 1.1 nM | –
14 | CNCC1Cc2cc(C)cc(-c3cc(Cl)ccc3Cl)c2O1 (racemic) [Example 486, (±)-{[7-(2,5-dichlorophenyl)-5-methyl-2,3-dihydro-1-benzofuran-2-yl]methyl}methylamine] | 90% | 5 nM | 0.2 nM | –
